Results taken from ChEMBL document CHEMBL1833829, “Development of 2-substituted-N-(naphth-1-ylmethyl) and N-benzhydrylpyrimidin-4-amines as dual cholinesterase and Aβ-aggregation inhibitors: Synthesis and biological evaluation” (Bioorg Med Chem Lett, 2011).

Key:
Acetylcholinesterase = Acetylcholinesterase (Homo sapiens, UniProt P22303)
Description: Inhibition of human AChE by Ellman's assay

Cholinesterase [1] = biological target: T1, Cholinesterase (Equus caballus, UniProt P81908)
Description: (§1) Inhibition of equine BuChE by Ellman's method

Cholinesterase [2] = biological target: T1, Cholinesterase; remark: listed apart in the source
Description: as §1

T1 sequence (P81908 whole entry): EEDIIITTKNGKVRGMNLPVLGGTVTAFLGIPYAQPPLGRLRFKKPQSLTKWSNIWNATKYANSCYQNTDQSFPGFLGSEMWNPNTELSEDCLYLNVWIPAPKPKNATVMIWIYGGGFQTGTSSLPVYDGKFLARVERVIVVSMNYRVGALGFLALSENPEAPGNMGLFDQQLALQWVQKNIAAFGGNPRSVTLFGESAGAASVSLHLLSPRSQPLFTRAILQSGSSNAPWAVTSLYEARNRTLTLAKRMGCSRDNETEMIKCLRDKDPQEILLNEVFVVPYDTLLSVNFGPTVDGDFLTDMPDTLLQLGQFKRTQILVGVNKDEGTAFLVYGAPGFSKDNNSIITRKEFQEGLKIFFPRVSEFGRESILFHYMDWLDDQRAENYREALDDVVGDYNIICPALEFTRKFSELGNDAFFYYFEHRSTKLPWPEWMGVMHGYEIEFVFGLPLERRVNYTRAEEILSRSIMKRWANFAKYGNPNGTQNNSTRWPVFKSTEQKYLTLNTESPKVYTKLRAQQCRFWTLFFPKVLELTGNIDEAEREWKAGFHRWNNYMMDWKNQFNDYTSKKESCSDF
Chain of Acetylcholinesterase (P22303 whole entry): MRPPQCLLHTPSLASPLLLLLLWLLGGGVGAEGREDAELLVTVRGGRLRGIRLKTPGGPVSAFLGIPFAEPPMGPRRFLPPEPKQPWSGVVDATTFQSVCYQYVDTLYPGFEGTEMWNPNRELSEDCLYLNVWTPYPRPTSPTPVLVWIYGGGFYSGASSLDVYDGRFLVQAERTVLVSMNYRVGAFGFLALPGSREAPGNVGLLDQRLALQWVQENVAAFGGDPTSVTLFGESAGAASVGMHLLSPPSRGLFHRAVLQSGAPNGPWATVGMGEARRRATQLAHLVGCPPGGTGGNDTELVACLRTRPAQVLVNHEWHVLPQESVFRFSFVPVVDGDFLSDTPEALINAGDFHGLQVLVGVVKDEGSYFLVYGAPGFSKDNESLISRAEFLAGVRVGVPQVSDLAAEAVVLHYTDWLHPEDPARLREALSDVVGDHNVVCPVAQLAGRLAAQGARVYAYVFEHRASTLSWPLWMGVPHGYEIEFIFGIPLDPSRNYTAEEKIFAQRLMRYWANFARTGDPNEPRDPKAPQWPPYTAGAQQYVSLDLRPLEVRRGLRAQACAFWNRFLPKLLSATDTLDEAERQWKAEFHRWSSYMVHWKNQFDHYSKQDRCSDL

In the case of `CCCN1CCN(c2nccc(NCc3cccc4ccccc34)n2)CC1`, the IC50 (Acetylcholinesterase) is reported as 19 µM and the IC50 (Cholinesterase [1]) is reported as 18.1 µM.

In the case of `c1ccc(C(Nc2ccnc(N3CCNCC3)n2)c2ccccc2)cc1`, the IC50 (Acetylcholinesterase) is reported as 31.3 µM and the IC50 (Cholinesterase [1]) is reported as greater than 100 µM.

With `c1ccc2c(CNc3ccnc(N4CCN(C5CCCCC5)CC4)n3)cccc2c1` the IC50 (Acetylcholinesterase) was 8 µM and the IC50 (Cholinesterase [1]) was 3.9 µM.

Work on `CC1CCN(c2nccc(NC(c3ccccc3)c3ccccc3)n2)CC1` yielded an IC50 (Acetylcholinesterase) of 32.2 µM and an IC50 (Cholinesterase [1]) of 33.8 µM.

In the case of `CC(C)C1CCN(c2nccc(NC(c3ccccc3)c3ccccc3)n2)CC1`, the IC50 (Acetylcholinesterase) is reported as 42.5 µM and the IC50 (Cholinesterase [1]) is reported as 87 µM.

In the case of `CC(=O)N1CCN(c2nccc(NC(c3ccccc3)c3ccccc3)n2)CC1`, the IC50 (Acetylcholinesterase) is reported as 29 µM and the IC50 (Cholinesterase [1]) is reported as greater than 100 µM.

Compound `CC(C)(C)OC(=O)N1CCN(c2nccc(NCc3cccc4ccccc34)n2)CC1` has an IC50 (Acetylcholinesterase) of 50.8 µM and an IC50 (Cholinesterase [1]) greater than 100 µM.

With `CN1CCN(c2nccc(NC(c3ccccc3)c3ccccc3)n2)CC1` the IC50 (Acetylcholinesterase) was 13.7 µM and the IC50 (Cholinesterase [1]) was 23.8 µM.

Work on `OCCN1CCN(c2nccc(NCc3cccc4ccccc34)n2)CC1` yielded an IC50 (Acetylcholinesterase) of 9.8 µM and an IC50 (Cholinesterase [1]) of 17.9 µM.

`COCCN1CCN(c2nccc(NC(c3ccccc3)c3ccccc3)n2)CC1` showed an IC50 (Acetylcholinesterase) of 39.2 µM and an IC50 (Cholinesterase [1]) of 28.4 µM.

`CC(=O)N1CCN(c2nccc(NCc3cccc4ccccc34)n2)CC1` showed an IC50 (Acetylcholinesterase) of 13.8 µM and an IC50 (Cholinesterase [1]) of 32.9 µM.

`CC(C)N1CCN(c2nccc(NC(c3ccccc3)c3ccccc3)n2)CC1` was tested, and the IC50 (Acetylcholinesterase) was 20.3 µM and the IC50 (Cholinesterase [1]) was 9.7 µM.

For `CC1CCN(c2nccc(NCc3cccc4ccccc34)n2)CC1`, the IC50 (Cholinesterase [2]) was 2.2 µM.

For `COCCN1CCN(c2nccc(NCc3cccc4ccccc34)n2)CC1`, the IC50 (Acetylcholinesterase) was 11.7 µM and the IC50 (Cholinesterase [1]) was 26.5 µM.

`c1ccc2c(CNc3ccnc(N4CCNCC4)n3)cccc2c1` was tested, and the IC50 (Acetylcholinesterase) was 17.5 µM and the IC50 (Cholinesterase [1]) was 25.4 µM.

Compound `OCCN1CCN(c2nccc(NC(c3ccccc3)c3ccccc3)n2)CC1` has an IC50 (Acetylcholinesterase) of 21.6 µM and an IC50 (Cholinesterase [1]) of 59.5 µM.

`CC(C)C1CCN(c2nccc(NCc3cccc4ccccc34)n2)CC1` was tested, and the IC50 (Acetylcholinesterase) was 16.7 µM and the IC50 (Cholinesterase [1]) was 9.1 µM.

`CC(C)(C)OC(=O)N1CCN(c2nccc(NC(c3ccccc3)c3ccccc3)n2)CC1` showed an IC50 (Acetylcholinesterase) greater than 100 µM and an IC50 (Cholinesterase [1]) greater than 100 µM.

In the case of `CC(C)N1CCN(c2nccc(NCc3cccc4ccccc34)n2)CC1`, the IC50 (Acetylcholinesterase) is reported as 15.8 µM and the IC50 (Cholinesterase [1]) is reported as 7.6 µM.

In the case of `c1ccc(C(Nc2ccnc(N3CCN(C4CCCCC4)CC3)n2)c2ccccc2)cc1`, the IC50 (Acetylcholinesterase) is reported as 10 µM and the IC50 (Cholinesterase [1]) is reported as 7.6 µM.

In the case of `CCCN1CCN(c2nccc(NC(c3ccccc3)c3ccccc3)n2)CC1`, the IC50 (Acetylcholinesterase) is reported as 14.6 µM and the IC50 (Cholinesterase [1]) is reported as 17.5 µM.
